In US7700584B2 (Hangzhou Minsheng Pharmaceuticals Co., Ltd., priority 2004, dated 2010):
Where a name gives a salt, the structure may show the parent alone.

What was measured:
[1] = test system: Bel-7402 human hepatic carcinoma; test: In vitro inhibition rate to tumor cells (MTT), Bel-7402; type: cell-based; settings: 50 μg/ml
Description: (§1) (1) Single cell suspension was seeded into 96-well plates (×3) (the cells was diluted in the PRMI-1640 minimum medium to 3×10^4 cells/ml, […] diluted cells/well). […] The experiments were performed in quadruplicate.
(§2) (2) The medium was removed. Solutions of the anti-tumor agents (15 compounds) were prepared in a freshly prepared medium at the concentrations indicated in the following Table. […] of the solution was added into each well. Incubation was continued for 48 hours.
(§3) (3) […] of 2 mg/ml MTT was added into each well, and incubated for 4 hours.
(§4) (4) The medium was removed from the well. The microplates were swiftly turned down to throw-off the medium. […] DMSO was added into each well, and vortexed at room temperature for 10 minutes.
(§5) (5) OD value (λ=570 nm) was measured with an Enzyme-Linked Detector.
(§6) (6) The inhibition rates (IR) of cell growth were respectively calculated based on the following equation: IR(%)=[1−(average OD of the experimental group/average OD of the control group)]×100%

[2] = test system: SMMC-7721 human hepatic carcinoma; test: In vitro inhibition rate to tumor cells (MTT), SMMC-7721; type: cell-based; settings: 50 μg/ml
Description: as §1, §2, §3, §4, §5, §6

[3] = test system: HL-60 human promyelocytic leukemia; test: In vitro inhibition rate to tumor cells (MTT), HL-60; type: cell-based; settings: 50 μg/ml
Description: as §1, §2, §3, §4, §5, §6

[4] = test system: A-549 human lung adenocarcinoma; test: In vitro inhibition rate to tumor cells (MTT), A-549; type: cell-based; settings: 50 μg/ml
Description: as §1, §2, §3, §4, §5, §6

[5] = test system: 293 cells; test: Cell status of 293 cells treated with sample alone (herpes virus screening); settings: 200 μg/ml, 24 hrs
[6] = test system: MCF-7 human mammary adenocarcinoma; test: In vitro inhibition rate to tumor cells (MTT), MCF-7; type: cell-based; settings: 50 μg/ml
Description: as §1, §2, §3, §4, §5, §6

[7] = test system: LLC mouse Lewis lung carcinoma; test: In vitro inhibition rate to tumor cells (MTT), LLC; type: cell-based; settings: 50 μg/ml
Description: as §1, §2, §3, §4, §5, §6

[8] = test system: U-937 human histocytic lymphoma; test: In vitro inhibition rate to tumor cells (MTT), U-937; type: cell-based; settings: 50 μg/ml
Description: as §1, §2, §3, §4, §5, §6

[9] = test system: Hela human cervical carcinoma; test: In vitro inhibition rate to tumor cells (MTT), Hela; type: cell-based; settings: 50 μg/ml
Description: as §1, §2, §3, §4, §5, §6

[10] = test system: Hepatitis B virus (HBV); type: cell-based
[11] = test system: HepG2 cells; test: Cell status of HepG2 cells treated with sample (HBV screening); type: cell-based; settings: 200 μg/ml, HepG2, four days after infection
Description: 1.5 Screening for the agents: The HepG2 cells were counted and 1.5×10^4 cells/well were seeded into a 96-well plate. After incubation overnight in an atmosphere of CO2 at 37° C., each of the experimental samples in a given concentration was added to the cells. After incubation at 37 °C for 24 hrs, the HepG2 treated with the samples were infected with vAcGFPHBVc of 100 MOI. A negative control and a positive control were also included. Four days after infection, the growth of the cells were observed, and the HBV e antigen in the supernatant was measured with the HBV e antigen diagnostic kit.

[12] = Table 2 (repeated screening), hydrochloride

## C=C1CC2(OC(=O)c3ccccc3)OC3(CC2C(C)C)C(C)CCC13 (stereo not shown) [Compound 4, Curcumol benzoate]
[1]; Table 1
  inhibition rate, Results (%) Bel-7402: 43.21%
[1]; Table 2 (repeated screening)
  inhibition rate, Results (%) Bel-7402: 43.02%
[2]; Table 1
  inhibition rate, Results (%) SMMC-7721: 5.30%
[2]; Table 2 (repeated screening)
  inhibition rate, Results (%) SMMC-7721: 1.96%
[3]; Table 1
  inhibition rate, Results (%) HL-60: 42.1%
[3]; Table 2 (repeated screening)
  inhibition rate, Results (%) HL-60: 40.01%
[4]; Table 1
  inhibition rate, Results (%) A-549: 10.51%
[4]; Table 2 (repeated screening)
  inhibition rate, Results (%) A-549: 14.03%
[5]
  Cytopathy and cell status, Sample: Good
[6]; Table 1
  inhibition rate, Results (%) MCF-7: 49.23%
[6]; Table 2 (repeated screening)
  inhibition rate, Results (%) MCF-7: 50.09%
[7]; Table 1
  inhibition rate, Results (%) LLC: 1.01%
[7]; Table 2 (repeated screening)
  inhibition rate, Results (%) LLC: 0.23%
[8]; Table 1
  inhibition rate, Results (%) U-937: 52.23%
[8]; Table 2 (repeated screening)
  inhibition rate, Results (%) U-937: 51.00%
[9]; Table 1
  inhibition rate, Results (%) Hela: 73.22%
[9]; Table 2 (repeated screening)
  inhibition rate, Results (%) Hela: 70.12%

## CC(C)C1CC23OC1(O)C/C(=C\NC(C)(C)C)C2CCC3C (stereo not shown) [Compound 16, Curcumol t-butyl amine hydrochloride]
[10]; 200 μg/ml, decrease of HBeAg relative to positive control
  (Value of the positive control - Measured Value) Value of the positive control × 100%: 73.81%
[10]; 200 μg/ml, supernatant four days after infection, positive control 1.917, negative 0.057
  OD450 of HBeAg: 0.502
[10]; primary screening, HBV e antigen, HepG2, 13 samples
  activity against HBV (in words): had the activity against HBV
[1]; Table 1, hydrochloride
  inhibition rate, Results (%) Bel-7402: 1.23%
[1]; [12]
  inhibition rate, Results (%) Bel-7402: 8.99%
[2]; Table 1
  inhibition rate, Results (%) SMMC-7721: −2.50%
[2]; [12]
  inhibition rate, Results (%) SMMC-7721: 2.63%
[11]
  Cell status: Normal
[3]; Table 1, hydrochloride
  inhibition rate, Results (%) HL-60: 2.31%
[3]; [12]
  inhibition rate, Results (%) HL-60: 15.00%
[4]; Table 1, hydrochloride
  inhibition rate, Results (%) A-549: 6.01%
[4]; [12]
  inhibition rate, Results (%) A-549: 10.19%
[6]; Table 1, hydrochloride
  inhibition rate, Results (%) MCF-7: 54.89%
[6]; [12]
  inhibition rate, Results (%) MCF-7: 50.32%
[7]; Table 1, hydrochloride
  inhibition rate, Results (%) LLC: 1.13%
[7]; [12]
  inhibition rate, Results (%) LLC: 0.22%
[8]; Table 1, hydrochloride
  inhibition rate, Results (%) U-937: 82.56%
[8]; [12]
  inhibition rate, Results (%) U-937: 80.12%
[9]; Table 1, hydrochloride
  inhibition rate, Results (%) Hela: 68.99%
[9]; [12]
  inhibition rate, Results (%) Hela: 70.32%
